Usually IC50 stands for the concentration that inhibits the measured activity by half. A high value points to lower potency.

Our source for the IC50 values is patent publication US20070149508A1, “Six membered heteroaromatic inhibitors targeting resistant kinase mutations” (TargeGen, Inc., priority 2005, published 2007).

Structures can show the parent of a compound that is named as a salt.

Test [1] has as its target Abl kinase (Homo sapiens, UniProt P00519). The experiment in a line: biochemical. The note with it: Abl IC50 (nM), Abl kinase (Invitrogen, 20 ng/well), Abltide 100 μM, ATP 500 nM, 37° C. for 60 minutes, top concentration 10 uM.
Test [2] deals with T1, Abl (T315I) (Homo sapiens, UniProt P00519, T315I).
T1 construct: purchased Upstate
Description: Abl (T315I) Kinase Assay (KinaseGlo luminescent detection of residual ATP). In kind it is biochemical. The note with it: Abl (T315I) IC50 (nM), Abl (T315I) (Upstate, 17 ng/well), Abltide 100 uM, ATP 500 nM, 60 minutes at 37° C. On the procedure: The assay was performed similarly to the Abl kinase assay. Abl (T315I) (Upstate, 17 ng/well); Abltide substrate (100 uM) and ATP (500 nM) comprised the reaction mixture. Compound was similarly diluted, and the reaction plate was incubated for 60 minutes at 37° C.

`O=S(=O)(c1ccc(Nc2ncc(/C=C/c3cccc(O)c3)cn2)cc1OC(F)(F)F)N1CCNCC1` [3-(2-{2-[4-(Piperazine-1-sulfonyl)-3-trifluoromethoxy-phenylamino]-pyrimidin-5-yl}-vinyl)-phenol]: the IC50 in test [1] came out at 97 nM; in test [2], 752 nM.

In the case of `Nc1nc2ccc(/C=C/c3cnc(Nc4ccc(S(=O)(=O)NC5CCCNC5)cc4)nc3)cc2s1` (stereo not shown) [4-{5-[2-(2-Aminobenzothiazol-6-yl)-vinyl]-pyrimidin-2-ylamino}-N-piperidin-3-yl-benzenesulfonamide Hydrochloride], the figures for the IC50 in test [1] and in test [2] were 1440 nM and 898 nM, respectively.

For the molecule `N#Cc1ccc(Nc2ncc(/C=C/c3cccc4[nH]ccc34)cn2)cc1` [4-(5-((E)-2-(1H-indol-4-yl)vinyl)pyrimidin-2-ylamino)benzonitrile], the IC50 is 174 nM in test [1] and greater than 10000 nM in test [2].

Take `O=S(=O)(c1ccc(Nc2ncc(/C=C/c3ccccc3)cn2)cc1NCCO)N1CCNCC1` [2-{[5-({5-[(E)-2-phenylvinyl]pyrimidin-2-yl}amino)-2-(piperazin-1-ylsulfonyl)phenyl]amino}ethanol trifluoroacetic acid salt]: the IC50 in test [1] is 131 nM; in test [2], 2500 nM.

Consider `O=S(=O)(c1ccc(Nc2ncc(/C=C/c3ccc(-c4cn[nH]c4)cc3)cn2)cc1)N1CCNCC1` [N-[4-(piperazin-1-ylsulfonyl)phenyl]-5-{(E)-2-[4-(1H-pyrazol-4-yl)phenyl]vinyl}pyrimidin-2-amine], for which the IC50 in test [1] is 3800 nM; in test [2], 1230 nM.

With `NS(=O)(=O)c1cccc(/C=C/c2cnc(Nc3ccc(S(=O)(=O)C4CCNCC4)cc3)nc2)c1` [3-(2-{2-[4-(Piperidine-4-sulfonyl)-phenylamino]-pyrimidin-5-yl}-vinyl)-benzenesulfonamide Hydrochloride], the IC50 in test [1] is 198 nM; in test [2], 2070 nM.

With `Nc1nc2ccc(/C=C/c3cnc(Nc4ccc(S(=O)(=O)C5CCCNCC5)cc4)nc3)cc2s1` (stereo not shown) [6-(2-{2-[4-(Azepane-4-sulfonyl)-phenylamino]-pyrimidin-5-yl}-vinyl)-benzothiazol-2-ylamine], the IC50 is 27 nM in test [1] and 14 nM in test [2].

Consider `N=C(N)c1cccc(/C=C/c2cnc(Nc3ccc(S(=O)(=O)C4CCNCC4)cc3)nc2)c1` [3-(2-{2-[4-(Piperidine-4-sulfonyl)-phenylamino]-pyrimidin-5-yl}-vinyl)-benzamidine], for which the results for the IC50 in test [1] and in test [2] were 3670 nM and 53000 nM, respectively.

Turning to `O=S(=O)(c1ccc(Nc2ncc(/C=C/c3cccc4[nH]ccc34)cn2)cc1)N1CCNCC1` [5-[(E)-2-(1H-indol-4-yl)vinyl]-N-{4-(piperazin-1-ylsulfonyl)phenyl]pyrimidin-2-amine], the IC50 in test [1] is 22 nM; in test [2], 450 nM.

With `O=S(=O)(c1ccc(Nc2ncc(/C=C/c3cc(C(F)(F)F)cc4[nH]nnc34)cn2)cc1)N1CCCNCC1` [[4-([1,4]Diazepane-1-sulfonyl)-phenyl]-{5-[2-(6-trifluoromethyl-1H-benzotriazol-4-yl)-vinyl]-pyrimidin-2-yl}-amine], the figures for the IC50 in test [1] and in test [2] were 59 nM and 67 nM, respectively.

As for `Nc1nc2ccc(/C=C/c3cnc(Nc4ccc(S(=O)(=O)N5CCC(CO)CC5)cc4)nc3)cc2s1` [(1-{[4-({5-[(E)-2-(2-amino-yl)vinyl]pyrimidin-2-amino)phenyl]sulfonyl}piperidin-4-yl)methanol], the IC50 in test [1] came to 437 nM; in test [2], 194 nM.

As to `Nc1nc2ccc(/C=C/c3cnc(Nc4ccc(S(=O)(=O)N5CCCNCC5)cc4)nc3)cc2s1` [(E)-6-(2-(2-(4-(1,4-diazepan-1-ylsulfonyl)phenylamino)pyrimidin-5-yl)vinyl)benzo[d]thiazol-2-amine], the IC50 in test [1] is 39 nM; in test [2], 22 nM.

`Nc1nc2ccc(/C=C/c3cnc(Nc4ccc(S(=O)(=O)C5CCNCC5)cc4)nc3)cc2s1` [6-[(E)-2-(2-{[4-(piperidin-4-ylsulfonyl)phenyl]amino}pyrimidin-5-yl)vinyl]-1,3-benzothiazol-2-amine trifluoroacetic acid salt]: the IC50 in test [1] was 50 nM; in test [2] it was 58 nM.

`C(=C\c1cccc2[nH]ncc12)/c1cnc(Nc2ccc(OC3CCNCC3)cc2)nc1` [5-[(E)-2-(1H-indazol-4-yl)vinyl]-N-[4-(piperidin-4-yloxy)phenyl]pyrimidin-2-amine trifluoroacetic acid salt]: the half-maximal inhibitory concentration (IC50) in test [1] came out at 7.9 nM; in test [2], 169 nM.
